From patent US6077871A, “Droloxifene pharmaceutical compositions” (Pfizer Inc., priority 1998, dated 2000)
Counter-ions that a name gives are not always drawn. Like-named read-outs stand apart in the source and are kept apart here.

Legend:
[1] = pH 3
Description: The solubility of droloxifene citrate was determined in an aqueous phosphate buffer at pH 3, without and with various levels of cyclodextrins. Solubility testing of droloxifene citrate in solutions of the cydodextrins, SBECD and HPBCD, was conducted using an equilibrium solubility method. The following protocol was employed for the solubility determination.
Separate 0.02 M aqueous buffer solutions of phosphoric acid (H3 PO4) and 0.02 M dibasic sodium phosphate (Na2 HPO4) were prepared by dissolving 2.25 gm and 2.84 gm, respectively, into separate one liter portions of deionized water and stirring with a magnetic stir bar until dissolved. To obtain a pH 3 buffer, the two previous buffers were combined, at an approximate ratio of 2:1 (H3 PO4 buffer:Na2 HPO4 buffer). The final volume of the resulting pH 3 buffer was not critical.
To 25 mL volumetric flasks, weights of either HPBCD or SBECD were added to produce final concentrations of each cyclodextrin shown in Table 1. For example, to prepare a 2% w/v solution of HPBCD in pH 3 phosphate buffer, 0.5 gm of HPBCD was accurately added to a 25 mL volumetric flask. […]
To 5 mL glass vials with screw caps, 3 mL of the desired cyclodextrin solution was added. […] The contents were filtered into a clean screw cap vial through a Millex-HV 0.45 μm filter (Millipore, Bedford, Mass.) and the drug concentration determined by an HPLC method. […]

[2] = pH 3, 30° C., 840 footcandle fluorescent light
Description: The stability of droloxifene citrate was determined at pH 3 with various concentrations of SBECD and HPBCD. For this protocol, the 0.02 M sodium phosphate buffer of pH 3 and the cyclodextrin solutions were prepared as for the droloxifene solubility determination described previously. 10 mL of each cyclodextrin solution was added to an 18 mL clear glass vial with screw cap which contained a previously weighed amount of droloxifene citrate. The vials were swirled until dissolution of droloxifene citrate was complete. The concentration of droloxifene citrate ranged from 0.05-0.1 mgA/mL. Concentrations of HPBCD included 0.2, 2, 4, 7 and 10% w/v. Concentrations of SBECD included 0.33 and 3.3% w/v. The vials were stored in an 840 footcandle fluorescent light box at 30° C. The solutions were removed briefly from time to time to allow drug concentration determination using the HPLC method described as for the solubility determination.

[3] = Stability of droloxifene out of light / in light-protected solutions; format: physicochemical
Text: The results in Table 2 (below) show a stability enhancement of droloxifene with the inclusion of cyclodextrins. The concentration of cyclodextrin that results in the greatest stabilizing effect depends on the efficiency of the formation of the droloxifene-cyclodextrin inclusion complex, that is, the stability constant, as well as the initial concentration of droloxifene present. […] This stability improvement is further useful for preconstituted aqueous solutions which must have a long practical shelf-life, e.g., 2 years, even if packaged in a partially light-protected package. […] While not wishing to be held to any theory, it is believed that incorporation of droloxifene in the cyclodextrin cavity minimizes a cis-trans isomerization reaction, thus reducing the formation of the isomeric decay product and resulting in an overall stability improvement.

Row | Structure (SMILES) | solubility with cyclodextrin [1] | Decay Rate Constant ([2]; 0.2% HPBCD) [h⁻¹] | Time Required for 1% Decay ([2]; 0.2% HPBCD) [h] | Decay Rate Constant ([2]; 0.33% SBECD) [h⁻¹] | Time Required for 1% Decay ([2]; 0.33% SBECD) [h] | Decay Rate Constant ([2]; 2% HPBCD) [h⁻¹] | Time Required for 1% Decay ([2]; 2% HPBCD) [h] | Decay Rate Constant ([2]; 3.3% SBECD) [h⁻¹] | Time Required for 1% Decay ([2]; 3.3% SBECD) [h] | Decay Rate Constant ([2]; no cyclodextrin) [h⁻¹] | Time Required for 1% Decay ([2]; no cyclodextrin) [h] | stability in light-protected solutions ([3]; light-protected solutions with beta-cyclodextrins present) | stability out of light ([3]; out of light vs in light)
1 | CC/C(=C(/c1ccc(OCCN(C)C)cc1)c1cccc(O)c1)c1ccccc1 [droloxifene citrate] | enhancement of droloxifene citrate solubility with cyclodextrin | 0.0094 | 1.1 | 0.0090 | 1.1 | 0.0030 | 3.3 | 0.0070 | 1.4 | 0.0123 | 0.8 | – | –
2 | CC/C(=C(/c1ccc(OCCN(C)C)cc1)c1cccc(O)c1)c1ccccc1 [droloxifene, 1-[4'-(2-dimethylaminoethoxy)phenyl]-1-(3'-hydroxyphenyl)-2-phenylbut-1-ene] | – | – | – | – | – | – | – | – | – | – | – | an improvement in stability is also observed | significantly more stable out of light
